Test results: ChEMBL document CHEMBL1123495, “Assessment of a potential dopaminergic prodrug moiety in several ring systems” (1986)
Active and inactive are the calls of the source. No cut-off for these calls is given here.

How the values were obtained:
Rattus norvegicus [1] = assay: Compound was tested for induction of contralateral turning behavior with unilateral lesions of the nigrostriatal pathway in rat, activity expressed as potency ratio to apomorphine; Inactive up to 12.19 umol/kg; type: functional, organism-based
Dopamine receptor = conditions: Felis catus
Felis catus [2] = assay: Compound was tested for inhibition of chronotropic stimulation response on the cardioaccelerator nerve in cat at the concentration > 3.0 uM/kg; Inactive; type: functional, organism-based
Rattus norvegicus [3] = species on record: Rattus norvegicus; assay: Compound was tested for induction of contralateral turning behavior with unilateral lesions of the nigrostriatal pathway in rat by haloperidol; Significant at p< 0.05; type: functional, organism-based
Felis catus [4] = species on record: Felis catus; assay: Compound was tested for inhibition of chronotropic stimulation response on the cardioaccelerator nerve in cat; type: functional; conditions: read-out: ID50 (the source's name)
Rattus norvegicus [5] = species on record: Rattus norvegicus; assay: Compound was tested for induction of contralateral turning behavior with unilateral lesions of the nigrostriatal pathway in rat, activity expressed as potency ratio to apomorphine.; type: functional
Rattus norvegicus [6] = assay: Compound was tested for induction of contralateral turning behavior with unilateral lesions of the nigrostriatal pathway in rat, activity expressed as potency ratio to apomorphine; Inactive in inducing turns up to 12.1 umol/kg; type: functional, organism-based
Rattus norvegicus [7] = assay: Compound was tested for induction of contralateral turning behavior with unilateral lesions of the nigrostriatal pathway in rat, activity expressed as potency ratio to apomorphine; Inactive up to 12.3 umol/kg; type: functional, organism-based
Rattus norvegicus [8] = assay: Compound was tested for induction of contralateral turning behavior with unilateral lesions of the nigrostriatal pathway in rat, activity expressed as potency ratio to apomorphine; Inactive up to 13.9 umol/kg; type: functional, organism-based
Rattus norvegicus [9] = assay: Compound was tested for induction of contralateral turning behavior with unilateral lesions of the nigrostriatal pathway in rat, activity expressed as potency ratio to apomorphine; Inactive up to 16.9 umol/kg; type: functional, organism-based
Rattus norvegicus [10] = assay: Compound was tested for induction of contralateral turning behavior with unilateral lesions of the nigrostriatal pathway in rat, activity expressed as potency ratio to apomorphine; Inactive up to 13.3 umol/kg; type: functional, organism-based
Rattus norvegicus [11] = species on record: Rattus norvegicus; assay: Compound was tested for induction of contralateral turning behavior with unilateral lesions of the nigrostriatal pathway in rat by haloperidol; NS= Not significant; type: functional, organism-based
Felis catus [12] = species on record: Felis catus; assay: Compound was tested for antagonism of apomorphine induced inhibition of the tachycardia produced by stimulation of the right cardioaccelerator nerve in cat; type: functional
Rattus norvegicus [13] = assay: Compound was tested for induction of contralateral turning behavior with unilateral lesions of the nigrostriatal pathway in rat, activity expressed as potency ratio to apomorphine; Inactive up to 11.7 umol/kg; type: functional, organism-based

## CCCN(CCC)CCc1ccc(CO)c(O)c1
Rattus norvegicus [1]
  Potency ratio: inactive
Dopamine receptor
  AD50: inactive
Felis catus [2]
  ID50: inactive

## CN1CCc2cccc3c2[C@H]1Cc1ccc(O)c(O)c1-3 [APOMORPHINE]
Rattus norvegicus [3]
  Antagonism: Active
Felis catus [4]
  ED50: 0.022 µmol/kg

## CCCN1CCC[C@H]2c3ccc(CO)c(O)c3CC[C@@H]21
Rattus norvegicus [3]
  Antagonism: Active
Dopamine receptor
  AD50: inactive
Rattus norvegicus [5]
  Potency ratio: 0.07
Felis catus [2]
  ID50: inactive

## CCCN(CCC)C1CCc2c(ccc(CO)c2O)C1 (centres undefined)
Felis catus [4]
  ED50: 0.03 µmol/kg
Dopamine receptor
  AD50: inactive
Rattus norvegicus [5]
  Potency ratio: 0.93

## CCCN(CCC)C1Cc2ccc(C)c(O)c2C1 (centres undefined)
Rattus norvegicus [3]
  Antagonism: Active
Felis catus [4]
  ED50: 0.89 µmol/kg
Dopamine receptor
  AD50: inactive
Rattus norvegicus [5]
  Potency ratio: 0.3

## CCCN(CCC)C1CCc2c(ccc(C(=O)O)c2O)C1 (centres undefined)
Rattus norvegicus [6]
  Potency ratio: inactive
Dopamine receptor
  AD50: inactive
Felis catus [2]
  ID50: inactive

## CCCN1CCC[C@H]2c3ccc(C(=O)O)c(O)c3CC[C@@H]21
Dopamine receptor
  AD50: inactive
Rattus norvegicus [7]
  Potency ratio: inactive
Felis catus [2]
  ID50: inactive

## CCCN(CCC)CCc1ccc(C(=O)O)c(O)c1
Rattus norvegicus [8]
  Potency ratio: inactive
Dopamine receptor
  AD50: inactive
Felis catus [2]
  ID50: inactive

## CCCN(CCC)CCc1ccc(C)c(O)c1
Dopamine receptor
  AD50: inactive
Felis catus [2]
  ID50: inactive
Rattus norvegicus [9]
  Potency ratio: inactive

## CCCN(CCC)C1Cc2ccc(CO)c(O)c2C1 (centres undefined)
Rattus norvegicus [3]
  Antagonism: Active
Felis catus [4]
  ED50: 0.12 µmol/kg
Dopamine receptor
  AD50: inactive
Rattus norvegicus [5]
  Potency ratio: 0.33

## CCCN(CCC)CCc1ccc(C=O)c(O)c1
Rattus norvegicus [10]
  Potency ratio: inactive
Rattus norvegicus [3]
  Antagonism: Active
Dopamine receptor
  AD50: inactive
Felis catus [2]
  ID50: inactive

## CCCN1CCC[C@H]2c3ccc(C=O)c(O)c3CC[C@@H]21
Rattus norvegicus [11]
  Antagonism: inactive
Felis catus [4]
  ED50: 1.81 µmol/kg
Dopamine receptor
  AD50: inactive
Rattus norvegicus [5]
  Potency ratio: 0.38

## CCCN(CCC)C1CCc2c(ccc(C)c2O)C1 (centres undefined)
Felis catus [4]
  ED50: 0.06 µmol/kg
Dopamine receptor
  AD50: inactive
Rattus norvegicus [5]
  Potency ratio: 0.39

## CCCN(CCC)C1Cc2ccc(C(=O)O)c(O)c2C1 (centres undefined)
Felis catus [4]
  ED50: 3.18 µmol/kg
Dopamine receptor
  AD50: inactive

## CCCN1CCC[C@H]2c3ccc(C)c(O)c3CC[C@@H]21
Felis catus [12]
  AD50: 0.44 µM/kg
Rattus norvegicus [5]
  Potency ratio: 0.68
Felis catus [2]
  ID50: inactive

## CCCN(CCC)C1CCc2c(ccc(C=O)c2O)C1 (centres undefined)
Felis catus [4]
  ED50: 0.13 µmol/kg
Dopamine receptor
  AD50: inactive
Rattus norvegicus [5]
  Potency ratio: 0.07

## CCCN(CCC)C1Cc2ccc(C=O)c(O)c2C1 (centres undefined)
Rattus norvegicus [13]
  Potency ratio: inactive
Dopamine receptor
  AD50: inactive
Felis catus [2]
  ID50: inactive
